From article PMC11866408, “LOPAC library screening identifies suramin as a TRIM21 binder with a unique binding mode revealed by crystal structure” (Acta Crystallographica Section F: Structural Biology …, 2025)

Tests used:
[1] = molecular target: T1, TRIM21 PRYSPRY domain (human) (Homo sapiens, UniProt P19474); assay: ITC; DSF shift […] K; format: binding
T1 construct: PRYSPRY domain, residues Val287–Leu465, His6-SUMO tag cleaved

[2] = molecular target: T2, TRIM21 PRYSPRY domain (mouse) (Mus musculus, UniProt Q62191); assay: co-crystal structure at […] Å; ITC; format: binding
T2 construct: PRYSPRY domain, residues Val291–Met470, N-terminal His6-tag
T2 sequence (Q62191 291-470): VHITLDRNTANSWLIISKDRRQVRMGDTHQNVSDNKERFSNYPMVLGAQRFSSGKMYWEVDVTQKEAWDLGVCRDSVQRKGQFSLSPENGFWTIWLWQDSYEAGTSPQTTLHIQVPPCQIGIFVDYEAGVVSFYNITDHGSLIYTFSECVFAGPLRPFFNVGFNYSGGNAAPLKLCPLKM

T1 sequence (P19474 287-465): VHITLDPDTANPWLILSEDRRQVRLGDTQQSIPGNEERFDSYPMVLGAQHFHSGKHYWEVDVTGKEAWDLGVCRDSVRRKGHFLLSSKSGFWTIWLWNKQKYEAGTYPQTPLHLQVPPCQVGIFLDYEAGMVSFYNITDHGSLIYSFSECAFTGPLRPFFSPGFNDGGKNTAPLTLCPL

Cc1ccc(C(=O)Nc2ccc(S(=O)(=O)O)c3cc(S(=O)(=O)O)cc(S(=O)(=O)O)c23)cc1NC(=O)c1cccc(NC(=O)Nc2cccc(C(=O)Nc3cc(C(=O)Nc4ccc(S(=O)(=O)O)c5cc(S(=O)(=O)O)cc(S(=O)(=O)O)c45)ccc3C)c2)c1 [suramin]
Kd [1]: ~8 µM | Kd [2]: ~9 µM
